Measurements as given in PubChem BioAssay AID1259407 (Chemical Carcinogenesis Research Information System (CCRIS), 2018).
Active and inactive are the calls of the source. The rule behind the calls is not given here.

Tested on: CCRIS mutagenicity, Ames/micronucleus/aberration tests
Assay: CCRIS mutagenicity studies
[1] = Test System: AMES SALMONELLA TYPHIMURIUM, Strain/Indicator: TA98, Metabolic Activation: NONE, Method: PREINCUBATION
[2] = Test System: AMES SALMONELLA TYPHIMURIUM, Strain/Indicator: TA100, Metabolic Activation: NONE, Method: PREINCUBATION
[3] = Test System: AMES SALMONELLA TYPHIMURIUM, Strain/Indicator: TA98, Metabolic Activation: NONE, Method: STANDARD PLATE
[4] = Test System: AMES SALMONELLA TYPHIMURIUM, Strain/Indicator: TA98, Metabolic Activation: RAT, LIVER, S-9, AROCLOR 1254, Method: STANDARD PLATE
[5] = Test System: AMES SALMONELLA TYPHIMURIUM, Strain/Indicator: TA100, Metabolic Activation: NONE, Method: STANDARD PLATE
[6] = Test System: AMES SALMONELLA TYPHIMURIUM, Strain/Indicator: TA100, Metabolic Activation: RAT, LIVER, S-9, AROCLOR 1254, Method: STANDARD PLATE
[7] = Test System: AMES SALMONELLA TYPHIMURIUM, Strain/Indicator: TA98, Metabolic Activation: RAT, LIVER, S-9, AROCLOR 1254, Method: PREINCUBATION
[8] = Test System: AMES SALMONELLA TYPHIMURIUM, Strain/Indicator: TA100, Metabolic Activation: RAT, LIVER, S-9, AROCLOR 1254, Method: PREINCUBATION

O=C(ON=C1C=CC(=NOC(=O)c2ccccc2)C=C1)c1ccccc1
mutagenic call (End Point: IN VITRO CHROMOSOMAL ABERRATIONS, Test System: CHL CELLS, Metabolic Activation: RAT, LIVER, S-9, SODIUM PHENOBARBITAL AND 5,6-BENZOFLAVONE): inactive; negative | mutagenic call [1]: active; positive | mutagenic call (Test System: AMES SALMONELLA TYPHIMURIUM, Strain/Indicator: TA98, Metabolic Activation: RAT LIVER S-9, PHENOBARBITAL AND BETA-NAPHTHOFLAVONE, Method: PREINCUBATION): active; positive | mutagenic call [2]: inactive; negative | mutagenic call (Test System: AMES SALMONELLA TYPHIMURIUM, Strain/Indicator: TA100, Metabolic Activation: RAT LIVER S-9, PHENOBARBITAL AND BETA-NAPHTHOFLAVONE, Method: PREINCUBATION): active; positive | mutagenic call (Test System: AMES SALMONELLA TYPHIMURIUM, Strain/Indicator: TA1535, Metabolic Activation: NONE, Method: PREINCUBATION): inactive; negative | mutagenic call (Test System: AMES SALMONELLA TYPHIMURIUM, Strain/Indicator: TA1535, Metabolic Activation: RAT LIVER S-9, PHENOBARBITAL AND BETA-NAPHTHOFLAVONE, Method: PREINCUBATION): inactive; negative | mutagenic call (Test System: AMES SALMONELLA TYPHIMURIUM, Strain/Indicator: TA1537, Metabolic Activation: NONE, Method: PREINCUBATION): inactive; negative | mutagenic call (Test System: AMES SALMONELLA TYPHIMURIUM, Strain/Indicator: TA1537, Metabolic Activation: RAT LIVER S-9, PHENOBARBITAL AND BETA-NAPHTHOFLAVONE, Method: PREINCUBATION): active; positive | mutagenic call (Test System: AMES SALMONELLA TYPHIMURIUM, Strain/Indicator: TA1538, Metabolic Activation: NONE, Method: PREINCUBATION): active; positive | mutagenic call (Test System: AMES SALMONELLA TYPHIMURIUM, Strain/Indicator: TA1538, Metabolic Activation: RAT LIVER S-9, PHENOBARBITAL AND BETA-NAPHTHOFLAVONE, Method: PREINCUBATION): active; positive | mutagenic call (Test System: E.COLI, Strain/Indicator: WP2UVRA, Metabolic Activation: NONE, Method: PREINCUBATION): inactive; negative | mutagenic call (Test System: E.COLI, Strain/Indicator: WP2UVRA, Metabolic Activation: RAT LIVER S-9, PHENOBARBITAL AND BETA-NAPHTHOFLAVONE, Method: PREINCUBATION): inactive; negative

Oc1ccc2c(c1)[nH]c1ccccc12
mutagenic call (Test System: CHINESE HAMSTER OVARY, Strain/Indicator: CHO-K1-BH4 (HGPRT)/6-THIOGUANINE, Metabolic Activation: RAT, LIVER, S-9, AROCLOR (4%)): active; positive

CC1CCC(C(C)C)C(O)C1 (stereo unspecified)
mutagenic call (End Point: IN VITRO CHROMOSOMAL ABERRATIONS, Test System: CHO CELLS, Metabolic Activation: NONE): active; positive | mutagenic call (End Point: IN VITRO CHROMOSOMAL ABERRATIONS, Test System: TK6 HUMAN LYMPHOBLASTS, Metabolic Activation: NONE): active; positive

O=C(/C=C/c1ccccc1)c1ccc(Br)cc1
mutagenic call [3]: inactive; negative | mutagenic call [4]: inactive; negative | mutagenic call [5]: inactive; negative | mutagenic call [6]: inactive; negative

COc1ccc(/C=C/c2ccc([N+](=O)[O-])cc2)cc1
mutagenic call (Test System: AMES SALMONELLA TYPHIMURIUM, Strain/Indicator: TA98(NR), Metabolic Activation: NONE, Method: STANDARD PLATE): inactive; negative | mutagenic call (Test System: AMES SALMONELLA TYPHIMURIUM, Strain/Indicator: TA98 (NR), Metabolic Activation: S-9, Method: STANDARD PLATE): active; positive | mutagenic call [3]: active; positive | mutagenic call (Test System: AMES SALMONELLA TYPHIMURIUM, Strain/Indicator: TA98, Metabolic Activation: S-9, Method: STANDARD PLATE): active; positive | mutagenic call (Test System: AMES SALMONELLA TYPHIMURIUM, Strain/Indicator: TA100 (NR), Metabolic Activation: NONE, Method: STANDARD PLATE): inactive; negative | mutagenic call (Test System: AMES SALMONELLA TYPHIMURIUM, Strain/Indicator: TA100 (NR), Metabolic Activation: S-9, Method: STANDARD PLATE): inactive; negative | mutagenic call [5]: active; positive | mutagenic call (Test System: AMES SALMONELLA TYPHIMURIUM, Strain/Indicator: TA100, Metabolic Activation: S-9, Method: STANDARD PLATE): active; positive

CSSC
mutagenic call [1]: inactive; negative | mutagenic call [7]: inactive; negative | mutagenic call [2]: inactive; negative | mutagenic call [8]: inactive; negative | mutagenic call (Test System: AMES SALMONELLA TYPHIMURIUM, Strain/Indicator: TA102, Metabolic Activation: NONE, Method: PREINCUBATION): inactive; negative | mutagenic call (Test System: AMES SALMONELLA TYPHIMURIUM, Strain/Indicator: TA102, Metabolic Activation: RAT, LIVER, S-9, AROCLOR 1254, Method: PREINCUBATION): inactive; negative

O=S(=O)(O)c1ccc(N=Nc2c(O)ccc3ccccc23)cc1
mutagenic call (Test System: AMES SALMONELLA TYPHIMURIUM, Strain/Indicator: TA98, Metabolic Activation: HAMSTER, LIVER, S-9, Method: PREINCUBATION (PRIVAL METHOD)): inactive; negative | mutagenic call [1]: inactive; negative | mutagenic call [3]: inactive; negative | mutagenic call (Test System: AMES SALMONELLA TYPHIMURIUM, Strain/Indicator: TA98, Metabolic Activation: RAT LIVER S-9, AROCLOR 1254, Method: STANDARD PLATE): inactive; negative | mutagenic call (Test System: AMES SALMONELLA TYPHIMURIUM, Strain/Indicator: TA98, Metabolic Activation: RAT, LIVER, S-9, PHENOBARBITAL, Method: PREINCUBATION): inactive; negative | mutagenic call [2]: inactive; negative | mutagenic call [5]: inactive; negative | mutagenic call (Test System: AMES SALMONELLA TYPHIMURIUM, Strain/Indicator: TA100, Metabolic Activation: RAT LIVER S-9, AROCLOR 1254, Method: STANDARD PLATE): inactive; negative | mutagenic call (Test System: AMES SALMONELLA TYPHIMURIUM, Strain/Indicator: TA100, Metabolic Activation: RAT, LIVER, S-9, PHENOBARBITAL, Method: PREINCUBATION): inactive; negative

COP(=O)(SC)SC
mutagenic call (Test System: AMES SALMONELLA TYPHIMURIUM, Strain/Indicator: TA97, Metabolic Activation: NONE, Method: STANDARD PLATE): inactive; negative | mutagenic call (Test System: AMES SALMONELLA TYPHIMURIUM, Strain/Indicator: TA97, Metabolic Activation: RAT, LIVER, S-9, AROCLOR 1254, Method: PREINCUBATION): inactive; negative | mutagenic call (Test System: AMES SALMONELLA TYPHIMURIUM, Strain/Indicator: TA97, Metabolic Activation: RAT, LIVER, S-9, AROCLOR 1254, Method: STANDARD PLATE): inactive; negative | mutagenic call [3]: inactive; negative | mutagenic call [7]: inactive; negative | mutagenic call [4]: inactive; negative | mutagenic call [5]: inactive; negative | mutagenic call [8]: inactive; negative | mutagenic call [6]: inactive; negative

c1ccc2c(c1)-c1ccccc1C1NC21 (stereo unspecified)
mutagenic call [3]: active; positive | mutagenic call (Test System: AMES SALMONELLA TYPHIMURIUM, Strain/Indicator: TA1537, Metabolic Activation: NONE, Method: STANDARD PLATE): active; positive | mutagenic call (Test System: CHINESE HAMSTER V-79, Strain/Indicator: V-79/6-THIOGUANINE, Metabolic Activation: NONE, Method: STANDARD PLATE): active; positive

CC(=O)Nc1cccc2cc(F)cnc12
mutagenic call (Test System: AMES SALMONELLA TYPHIMURIUM, Strain/Indicator: TA100, Metabolic Activation: RAT, LIVER, S-9, PHENOBARBITAL AND 5,6-BENZOFLAVONE, Method: PREINCUBATION): active; positive
